Where two headings read alike, the source gives them in different places.
Legend:
[1] = Sedation / side effects observed in treated patients (clinical case examples)

Compound: Cc1nnc2n1-c1ccc(Cl)cc1C(c1ccccc1)=NC2 [alprazolam, 8-chloro-1-methyl-6-phenyl-4H-s-triazolo[4,3-a][1,4] benzodiazepine]
- pain rating after treatment (human, in vivo): 4/10
- pain remission (human, in vivo): increased period of pain remission
- pain response (human, in vivo): sustained results
- sedation limiting augmentation of dosage ([1]; Example 1: alprazolam 0.5 mg TID and 2 mg HS): severe patient sedation
- sedation limiting augmentation of dosage ([1]; Example 2: alprazolam 0.25 mg QID): severe sedation
- side effects ([1]; Example 8: alprazolam 5 mg/day): experienced alprazolam side effects

Compound: CCOC(=O)c1ncn2c1CN(C)C(=O)c1cc(F)ccc1-2 [flumazenil]
- low back pain after injection (Example 3: phantom-like pain, patient on alprazolam 6 mg a day, flumazenil 100 μg, 5 minutes after injection, before 7/10): 5/10
- effect on midazolam response to pain (Example 4: flumazenil 200 μg iv 5 minutes after midazolam 2 mg iv (ratio 10:1)): without altering the midazolam response to pain
- pain after treatment (Example 5: flumazenil 200 μg iv after midazolam 2 mg iv, before 3/10): pain disappeared
- pain 25 minutes after treatment (Example 8: further flumazenil 300 μg iv after midazolam 5 mg and flumazenil 500 μg, 25 minutes after treatment): 4/10
- pain rating after treatment (Example 8: further flumazenil 300 μg iv ten minutes later, after 5 minutes, before 5/10): 3/10
- pain level while moving arm (human, in vivo, iv): 1/10

Compound: Cc1ncc2n1-c1ccc(Cl)cc1C(c1ccccc1F)=NC2 [midazolam]
- improvement of pain (human, in vivo, iv): 40%
- level of pain after treatment (human, in vivo, iv): 3/10
- pain level after treatment (human, in vivo, iv): 0/10
- pain rating after treatment (human, in vivo, iv): 3/10
- sedation ([1]; Example 2: midazolam 2 mg iv): experienced sedation
- sedation ([1]; Example 5: midazolam 2 mg iv): did not present any signs of sedation

From patent publication US7855196B2 (priority 2005, dated 2010)
